US9034793B2, “Use of ribose to enhance plant growth” (Bioenergy, Inc., priority 2002, dated 2015)

Tested on: bean seeds
Assay: Plant growth and yield from bean seeds, daylight or darkness (Example 2)
Type: in vivo
Protocol: Three different treatments were explored on bean seeds to determine the effects of ribose (at two different doses) on plant growth and proliferation. [The three treatments include control (plain water), a 0.1332 M solution of ribose (5 g D-ribose dissolved in 250 ml water), and a 0.0666 M solution of ribose (5 g D-ribose dissolved in 500 ml water)]. The plants were kept under two different conditions, normal daylight and darkness. A total of six plants will be tested, with the conditions that each plant were tested at listed below. Treatments: [table] Each seed was planted under identical conditions (soil and pot size) and all at the same time. The environmental conditions (such as temperature and humidity), except for lighting, were kept constant for all the plants. Once potted, each seed received one to two tablespoons of treatment liquid (as mentioned above). A daily record was kept of the activity of each plant. Watering was done on every other day (or sooner if the soil was deemed too dry by the researcher), each again receiving one tablespoon of treatment liquid. Assessment of the effects of ribose fertilization was determined by measuring the time to the first appearance of a plant from the soil, the rate of growth, and leaf size. Table 3 represents the accumulated plant growth data from Example 2 and FIGS. 3 and 4 are graphic presentations of plant growth during light and dark conditions.

SMILES: O=C[C@H](O)[C@H](O)[C@H](O)CO [5/250, D-ribose]
- Amount of Growth Between Measurements (Dark, Day 0 (17-Sep)): 0
- Plant growth-height (Dark, Day 0 (17-Sep)): 0
- Rate of Growth Between Measurements (Dark, Day 0 (17-Sep)): 0
- Amount of Growth Between Measurements (Dark, Day 3 (20-Sep)): 0
- Plant growth-height (Dark, Day 3 (20-Sep)): 0
- Rate of Growth Between Measurements (Dark, Day 3 (20-Sep)): 0
- Amount of Growth Between Measurements (Dark, Day 5 (22-Sep)): 0
- Plant growth-height (Dark, Day 5 (22-Sep)): 0
- Rate of Growth Between Measurements (Dark, Day 5 (22-Sep)): 0
- Rate of Growth Overall Thru Date (Dark, Day 5 (22-Sep)): 0
- Amount of Growth Between Measurements (Dark, Day 7 (24-Sep)): 4.4
- Plant growth-height (Dark, Day 7 (24-Sep)): 4.4
- Rate of Growth Between Measurements (Dark, Day 7 (24-Sep)): 2.20
- Rate of Growth Overall Thru Date (Dark, Day 7 (24-Sep)): 0.63
- Amount of Growth Between Measurements (Dark, Day 8 (25-Sep)): 4.1
- Plant growth-height (Dark, Day 8 (25-Sep)): 8.5
- Rate of Growth Between Measurements (Dark, Day 8 (25-Sep)): 4.10
- Rate of Growth Overall Thru Date (Dark, Day 8 (25-Sep)): 1.06
- Amount of Growth Between Measurements (Dark, Day 9 (26-Sep)): 4.7
- Plant growth-height (Dark, Day 9 (26-Sep)): 13.2
- Rate of Growth Between Measurements (Dark, Day 9 (26-Sep)): 4.70
- Rate of Growth Overall Thru Date (Dark, Day 9 (26-Sep)): 1.47
- Amount of Growth Between Measurements (Dark, Day 10 (27-Sep)): 2.1
- Plant growth-height (Dark, Day 10 (27-Sep)): 15.3
- Rate of Growth Between Measurements (Dark, Day 10 (27-Sep)): 2.10
- Rate of Growth Overall Thru Date (Dark, Day 10 (27-Sep)): 1.53
- Amount of Growth Between Measurements (Dark, Day 11 (28-Sep)): 2.3
- Plant growth-height (Dark, Day 11 (28-Sep)): 17.6
- Rate of Growth Between Measurements (Dark, Day 11 (28-Sep)): 2.30
- Rate of Growth Overall Thru Date (Dark, Day 11 (28-Sep)): 1.60
- Amount of Growth Between Measurements (Dark, Day 12 (29-Sep)): 2
- Plant growth-height (Dark, Day 12 (29-Sep)): 19.6
- Rate of Growth Between Measurements (Dark, Day 12 (29-Sep)): 2.00
- Rate of Growth Overall Thru Date (Dark, Day 12 (29-Sep)): 1.63
- Amount of Growth Between Measurements (Dark, Day 13 (30-Sep)): 1.5
- Plant growth-height (Dark, Day 13 (30-Sep)): 21.1
- Rate of Growth Between Measurements (Dark, Day 13 (30-Sep)): 1.50
- Rate of Growth Overall Thru Date (Dark, Day 13 (30-Sep)): 1.62
- Amount of Growth Between Measurements (Dark, Day 16 (3-Oct)): 3.6
- Plant growth-height (Dark, Day 16 (3-Oct)): 24.7
- Rate of Growth Between Measurements (Dark, Day 16 (3-Oct)): 1.20
- Rate of Growth Overall Thru Date (Dark, Day 16 (3-Oct)): 1.54
- Amount of Growth Between Measurements (Light, Day 0 (17-Sep)): 0
- Plant growth-height (Light, Day 0 (17-Sep)): 0
- Rate of Growth Between Measurements (Light, Day 0 (17-Sep)): 0
- Amount of Growth Between Measurements (Light, Day 3 (20-Sep)): 0
- Plant growth-height (Light, Day 3 (20-Sep)): 0
- Rate of Growth Between Measurements (Light, Day 3 (20-Sep)): 0
- Amount of Growth Between Measurements (Light, Day 5 (22-Sep)): 1.1
- Plant growth-height (Light, Day 5 (22-Sep)): 1.1
- Rate of Growth Between Measurements (Light, Day 5 (22-Sep)): 0.55
- Rate of Growth Overall Thru Date (Light, Day 5 (22-Sep)): 0.22
- Amount of Growth Between Measurements (Light, Day 7 (24-Sep)): 4.4
- Plant growth-height (Light, Day 7 (24-Sep)): 5.5
- Rate of Growth Between Measurements (Light, Day 7 (24-Sep)): 2.20
- Rate of Growth Overall Thru Date (Light, Day 7 (24-Sep)): 0.79
- Amount of Growth Between Measurements (Light, Day 8 (25-Sep)): 9.5
- Plant growth-height (Light, Day 8 (25-Sep)): 15
- Rate of Growth Between Measurements (Light, Day 8 (25-Sep)): 9.50
- Rate of Growth Overall Thru Date (Light, Day 8 (25-Sep)): 1.88
- Amount of Growth Between Measurements (Light, Day 9 (26-Sep)): 4.1
- Plant growth-height (Light, Day 9 (26-Sep)): 19.1
- Rate of Growth Between Measurements (Light, Day 9 (26-Sep)): 4.10
- Rate of Growth Overall Thru Date (Light, Day 9 (26-Sep)): 2.12
- Amount of Growth Between Measurements (Light, Day 10 (27-Sep)): 4
- Plant growth-height (Light, Day 10 (27-Sep)): 23.1
- Rate of Growth Between Measurements (Light, Day 10 (27-Sep)): 4.00
- Rate of Growth Overall Thru Date (Light, Day 10 (27-Sep)): 2.31
- Amount of Growth Between Measurements (Light, Day 11 (28-Sep)): 2.6
- Plant growth-height (Light, Day 11 (28-Sep)): 25.7
- Rate of Growth Between Measurements (Light, Day 11 (28-Sep)): 2.60
- Rate of Growth Overall Thru Date (Light, Day 11 (28-Sep)): 2.34
- Amount of Growth Between Measurements (Light, Day 12 (29-Sep)): 0.7
- Plant growth-height (Light, Day 12 (29-Sep)): 26.4
- Rate of Growth Between Measurements (Light, Day 12 (29-Sep)): 0.70
- Rate of Growth Overall Thru Date (Light, Day 12 (29-Sep)): 2.20
- Amount of Growth Between Measurements (Light, Day 13 (30-Sep)): 0.2
- Plant growth-height (Light, Day 13 (30-Sep)): 26.6
- Rate of Growth Between Measurements (Light, Day 13 (30-Sep)): 0.20
- Rate of Growth Overall Thru Date (Light, Day 13 (30-Sep)): 2.05
- Amount of Growth Between Measurements (Light, Day 16 (3-Oct)): 1.7
- Plant growth-height (Light, Day 16 (3-Oct)): 28.3
- Rate of Growth Between Measurements (Light, Day 16 (3-Oct)): 0.57
- Rate of Growth Overall Thru Date (Light, Day 16 (3-Oct)): 1.77
- Amount of Growth Between Measurements (Light, Day 19 (6-Oct)): −0.7
- Plant growth-height (Light, Day 19 (6-Oct)): 27.6
- Rate of Growth Between Measurements (Light, Day 19 (6-Oct)): −0.23
- Rate of Growth Overall Thru Date (Light, Day 19 (6-Oct)): 1.45
